Reference: ChEMBL document CHEMBL6177973, “A Novel Compound 3a-M1, from Metabolites of Sinomenine Derivative 3a, Exerts Potent Anti-Aplastic Anemia Activity via IP3R/ORAI-Mediated CTL Ferroptosis” (J Med Chem, 2025)

What was measured:
Type in all cases: functional, cell-based
CTLL-2 = assay: Cytotoxicity against mouse CTLL-2 cells assessed as inhibition of cell viability incubated for 72 hrs by CCK8 assay; conditions: CTLL-2, 72 h
THP-1 = assay: Cytotoxicity against human THP-1 cells assessed as inhibition of cell viability incubated for 72 hrs by CCK8 assay; conditions: THP-1, 72 h
HL-60 = assay: Cytotoxicity against human HL-60 cells assessed as inhibition of cell viability incubated for 72 hrs by CCK8 assay; conditions: HL-60, 72 h
RAW264.7 = assay: Cytotoxicity against mouse RAW264.7 cells assessed as inhibition of cell viability incubated for 72 hrs by CCK8 assay; conditions: RAW264.7, 72 h
HepG2 = assay: Cytotoxicity against human HepG2 cells assessed as inhibition of cell viability incubated for 72 hrs by CCK8 assay; conditions: HepG2, 72 h
NRK-52E = assay: Cytotoxicity against rat NRK-52E cells assessed as inhibition of cell viability incubated for 72 hrs by CCK8 assay
IEC-6 = assay: Cytotoxicity against rat IEC-6 cells assessed as inhibition of cell viability incubated for 72 hrs by CCK8 assay; conditions: IEC-6, 72 h

Work on `C/C=C/C[C@@H](C)[C@@H](O)[C@H]1C(=O)N[C@@H](CC)C(=O)N(C)CC(=O)N(C)[C@@H](CC(C)C)C(=O)N[C@@H](C(C)C)C(=O)N(C)[C@@H](CC(C)C)C(=O)N[C@@H](C)C(=O)N[C@H](C)C(=O)N(C)[C@@H](CC(C)C)C(=O)N(C)[C@@H](CC(C)C)C(=O)N(C)[C@@H](C(C)C)C(=O)N1C` [CYCLOSPORINE] yielded an IC50 (CTLL-2) of 2.72 µM, an IC50 (THP-1) of 4.36 µM and an IC50 (HL-60) of 8.14 µM. For the same compound, the IC50 (RAW264.7) was 14.2 µM, the IC50 (HepG2) was 11.7 µM and the IC50 (NRK-52E) was 35.4 µM. The IC50 (IEC-6) was 9.14 µM.
